The target of assay [1] is SMARCA4 (Homo sapiens, UniProt P51532). Description: HiBit assay in engineered HT1080 CRISPR knock-in cell, 6 hrs (B series), SMARCA4. The class given is cell-based. Particulars: 6 hrs incubation; for DC50 / SMARC A4 HT1080 HiBit Dmax(%): HT1080 CRISPR knock-in cells; for DC50: read-out: SMARC A4 HT1080 HiBit DC50; for Dmax: HT-1080, HT1080 CRISPR knock-in cells, read-out: SMARC A4 HT1080 HiBit Dmax(%). A digest of the protocol: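 Engineered HT1080 knock-in cells, 2000 cells/well, 6 hrs compound exposure, 37° C/5% CO2, 0.1% DMSO final. Lytic detection: LgBiT 1:100 plus HiBiT substrate 1:50 in lytic buffer, 10 min shake at RT, luminescence read.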

The target of assay [2] is SMARCA2 (Homo sapiens, UniProt P51531). Description: HiBit assay in engineered HT1080 CRISPR knock-in cell, 6 hrs (B series), SMARCA2. Format: cell-based. The conditions noted are these: 6 hrs incubation; for DC50 / SMARC A2 HT1080 HiBit Dmax (%): HT1080 CRISPR knock-in cells; for DC50: read-out: SMARC A2 HT1080 HiBit DC50; for Dmax: HT-1080, HT1080 CRISPR knock-in cells, read-out: SMARC A2 HT1080 HiBit Dmax (%). The gist of the method: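 HT1080 CRISPR knock-in cells carrying HiBiT-tagged SMARCA2 seeded onto compound (0.1% DMSO) at 2000 cells/well. Incubated 6 h at 37 °C, 5% CO2, then lysed with Nano-Glo HiBiT lytic reagent containing LgBiT, and luminescence read.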
(With HiBiT, luminescence reflects the tagged protein that the partner subunit can reach.)

SMARCA4, sequence (P51532 whole entry): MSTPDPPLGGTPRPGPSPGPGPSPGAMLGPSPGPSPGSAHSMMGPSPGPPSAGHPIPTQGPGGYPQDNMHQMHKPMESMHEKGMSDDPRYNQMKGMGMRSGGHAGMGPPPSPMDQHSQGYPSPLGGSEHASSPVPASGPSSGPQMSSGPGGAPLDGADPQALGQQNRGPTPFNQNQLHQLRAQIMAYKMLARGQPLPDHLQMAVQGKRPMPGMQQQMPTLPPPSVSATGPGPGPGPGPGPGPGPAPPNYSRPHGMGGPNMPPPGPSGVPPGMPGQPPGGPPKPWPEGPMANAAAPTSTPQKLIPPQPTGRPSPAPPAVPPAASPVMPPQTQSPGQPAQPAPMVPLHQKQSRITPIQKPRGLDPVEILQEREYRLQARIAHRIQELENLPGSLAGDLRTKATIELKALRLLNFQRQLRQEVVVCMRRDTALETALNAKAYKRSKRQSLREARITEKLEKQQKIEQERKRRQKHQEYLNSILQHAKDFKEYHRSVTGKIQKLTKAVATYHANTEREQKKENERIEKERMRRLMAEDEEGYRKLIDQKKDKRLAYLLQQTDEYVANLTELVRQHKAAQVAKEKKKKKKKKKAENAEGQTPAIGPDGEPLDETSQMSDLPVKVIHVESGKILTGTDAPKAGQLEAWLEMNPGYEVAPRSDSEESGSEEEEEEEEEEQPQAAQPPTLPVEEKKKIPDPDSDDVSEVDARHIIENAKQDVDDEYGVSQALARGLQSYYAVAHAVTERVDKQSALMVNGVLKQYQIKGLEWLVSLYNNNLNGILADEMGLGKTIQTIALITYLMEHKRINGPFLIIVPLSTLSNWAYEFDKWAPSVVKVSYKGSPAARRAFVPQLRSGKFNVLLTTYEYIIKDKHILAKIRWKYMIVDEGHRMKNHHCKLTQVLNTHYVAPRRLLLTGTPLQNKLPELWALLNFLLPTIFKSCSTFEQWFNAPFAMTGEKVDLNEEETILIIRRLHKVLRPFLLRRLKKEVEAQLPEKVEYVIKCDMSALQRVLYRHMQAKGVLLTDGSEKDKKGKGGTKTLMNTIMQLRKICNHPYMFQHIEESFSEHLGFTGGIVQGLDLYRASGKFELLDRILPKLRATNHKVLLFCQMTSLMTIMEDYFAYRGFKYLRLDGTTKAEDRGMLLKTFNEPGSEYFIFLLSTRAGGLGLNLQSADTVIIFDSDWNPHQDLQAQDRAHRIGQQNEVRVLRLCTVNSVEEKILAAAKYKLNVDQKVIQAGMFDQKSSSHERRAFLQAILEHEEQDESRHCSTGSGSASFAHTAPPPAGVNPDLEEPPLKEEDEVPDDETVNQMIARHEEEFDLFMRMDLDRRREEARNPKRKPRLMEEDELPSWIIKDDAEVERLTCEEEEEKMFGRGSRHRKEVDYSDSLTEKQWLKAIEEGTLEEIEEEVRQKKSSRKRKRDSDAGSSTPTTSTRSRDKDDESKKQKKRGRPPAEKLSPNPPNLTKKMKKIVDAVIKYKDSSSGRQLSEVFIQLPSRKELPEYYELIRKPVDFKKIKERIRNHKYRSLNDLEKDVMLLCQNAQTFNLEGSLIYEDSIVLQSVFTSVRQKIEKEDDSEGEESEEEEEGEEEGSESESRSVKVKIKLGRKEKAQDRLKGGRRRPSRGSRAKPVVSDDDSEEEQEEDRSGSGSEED
SMARCA2, sequence (P51531 whole entry): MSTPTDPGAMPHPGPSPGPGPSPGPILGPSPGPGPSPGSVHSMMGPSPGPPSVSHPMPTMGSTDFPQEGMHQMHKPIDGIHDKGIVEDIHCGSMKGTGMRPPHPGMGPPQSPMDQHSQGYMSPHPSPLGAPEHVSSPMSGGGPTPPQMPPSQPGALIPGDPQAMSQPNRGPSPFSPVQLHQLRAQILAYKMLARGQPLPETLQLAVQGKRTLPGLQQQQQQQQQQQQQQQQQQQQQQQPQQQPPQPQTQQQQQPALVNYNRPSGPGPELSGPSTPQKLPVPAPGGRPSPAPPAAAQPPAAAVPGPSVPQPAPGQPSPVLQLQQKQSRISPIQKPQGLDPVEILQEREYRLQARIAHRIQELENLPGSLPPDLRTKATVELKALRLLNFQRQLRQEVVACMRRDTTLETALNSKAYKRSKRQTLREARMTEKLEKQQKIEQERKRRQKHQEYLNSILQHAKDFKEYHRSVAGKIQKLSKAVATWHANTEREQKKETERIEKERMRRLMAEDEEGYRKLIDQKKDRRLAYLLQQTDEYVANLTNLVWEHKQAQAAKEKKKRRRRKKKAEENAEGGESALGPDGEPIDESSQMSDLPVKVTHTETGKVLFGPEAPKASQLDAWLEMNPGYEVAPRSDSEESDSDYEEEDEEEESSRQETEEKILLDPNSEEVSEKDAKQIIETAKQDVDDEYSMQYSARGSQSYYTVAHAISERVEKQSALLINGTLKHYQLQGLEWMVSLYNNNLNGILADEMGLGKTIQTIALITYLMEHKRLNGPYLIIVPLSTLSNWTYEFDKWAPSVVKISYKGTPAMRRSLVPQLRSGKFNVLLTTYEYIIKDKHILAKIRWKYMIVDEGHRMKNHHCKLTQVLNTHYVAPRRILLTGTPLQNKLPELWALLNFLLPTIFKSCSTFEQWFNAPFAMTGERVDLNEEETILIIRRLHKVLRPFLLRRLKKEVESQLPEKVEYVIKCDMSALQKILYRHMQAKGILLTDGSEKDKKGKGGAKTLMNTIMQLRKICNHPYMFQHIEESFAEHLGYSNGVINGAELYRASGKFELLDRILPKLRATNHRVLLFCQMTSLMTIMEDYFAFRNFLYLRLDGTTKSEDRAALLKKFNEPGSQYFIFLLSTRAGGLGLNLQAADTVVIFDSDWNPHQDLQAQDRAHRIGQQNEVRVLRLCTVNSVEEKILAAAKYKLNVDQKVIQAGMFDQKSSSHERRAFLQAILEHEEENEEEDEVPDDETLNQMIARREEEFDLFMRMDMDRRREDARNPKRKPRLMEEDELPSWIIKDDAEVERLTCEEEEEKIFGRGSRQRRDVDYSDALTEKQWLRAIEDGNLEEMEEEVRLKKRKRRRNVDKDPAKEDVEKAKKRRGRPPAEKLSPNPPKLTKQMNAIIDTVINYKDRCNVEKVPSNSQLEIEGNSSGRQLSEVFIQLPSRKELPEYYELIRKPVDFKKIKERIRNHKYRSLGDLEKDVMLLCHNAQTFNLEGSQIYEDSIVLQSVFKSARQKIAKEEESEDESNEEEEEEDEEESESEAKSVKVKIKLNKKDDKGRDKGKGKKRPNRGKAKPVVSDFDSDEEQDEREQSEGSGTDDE

For the molecule `Cc1cc(C(C(=O)N2C[C@H](O)C[C@H]2C(=O)N[C@@H](CCCCCN2CCC(c3ccc4c(c3)C(C)(C)c3nc(=O)c5c(Cl)cccc5n3-4)CC2)c2ccc(-c3scnc3C)cc2)C(C)C)on1` (stereo partly drawn) [Compound B85, (2S,4R)-N-((S)-6-(4-(4-chloro-7,7-dimethyl-5-oxo-5,7-dihydroindolo[1,2-a]quinazolin-9-yl)piperidin-1-yl)-1-(4-(4-methylthiazol-5-yl)phenyl)hexyl)-4-hydroxy-1-(3-methyl-2-(3-methylisoxazol-5-yl)butanoyl)pyrrolidine-2-carboxamide], in assay [1], the DC50 is under 100 nM and the Dmax was over 90%. In assay [2], the DC50 is under 100 nM and the Dmax was over 90%.

For the molecule `Cc1ncsc1-c1ccc([C@H](CCCCCN2CCC(c3ccc4c(c3)C(C)(C)c3nc(=O)c5c(Br)cccc5n3-4)CC2)NC(=O)[C@@H]2C[C@@H](O)CN2C(=O)[C@@H](NC(=O)C2(C#N)CC2)C(C)(C)C)cc1` [Compound B3, (2S,4R)—N—((S)-6-(4-(4-bromo-7,7-dimethyl-5-oxo-5,7-dihydroindolo[1,2-a]quinazolin-9-yl)piperidin-1-yl)-1-(4-(4-methylthiazol-5-yl)phenyl)hexyl)-1-((S)-2-(1-cyanocyclopropane-1-carboxamido)-3,3-dimethylbutanoyl)-4-hydroxypyrrolidine-2-carboxamide], in assay [1], the DC50 was under 100 nM and the Dmax is over 90%. Moreover, in assay [2], the DC50 is under 100 nM and the Dmax was over 90%.

With `Cc1ncsc1-c1ccc([C@H](CN2CCOCC2)NC(=O)[C@@H]2C[C@@H](O)CN2C(=O)C(c2cc(N3CCC(CN4CCC(c5ccc6c(c5)-n5c(nc(=O)c7c(Cl)cccc75)C6(C)C)CC4)CC3)no2)C(C)C)cc1` (stereo partly drawn) [Compound B115, (2S,4R)-1-(2-(3-(4-((4-(4-chloro-7,7-dimethyl-5-oxo-5,7-dihydroindolo[1,2-a]quinazolin-10-yl)piperidin-1-yl)methyl)piperidin-1-yl)isoxazol-5-yl)-3-methylbutanoyl)-4-hydroxy-N-((R)-1-(4-(4-methylthiazol-5-yl)phenyl)-2-morpholinoethyl)pyrrolidine-2-carboxamide], in assay [1], the DC50 was under 100 nM and the Dmax was 70 to 90%. Further, in assay [2], the DC50 was under 100 nM and the Dmax is over 90%.

Consider `Cc1ncsc1-c1ccc([C@H](C)NC(=O)[C@@H]2C[C@@H](O)CN2C(=O)[C@@H](NC(=O)CCCn2cc(-c3ccc4c(c3)C(C)(C)c3nc(=O)c5c(Cl)cccc5n3-4)cn2)C(C)(C)C)cc1` [Compound B93, (2S,4R)-1-((S)-2-(4-(4-(4-chloro-7,7-dimethyl-5-oxo-5,7-dihydroindolo[1,2-a]quinazolin-9-yl)-1H-pyrazol-1-yl)butanamido)-3,3-dimethylbutanoyl)-4-hydroxy-N—((S)-1-(4-(4-methylthiazol-5-yl)phenyl)ethyl)pyrrolidine-2-carboxamide], for which the DC50 in assay [1] and in assay [2] was 100 to 500 nM throughout. The values for the Dmax in assay [1] and in assay [2] were under 50% and 50 to 69%, respectively.

`Cc1ncsc1-c1ccc([C@H](C)NC(=O)[C@@H]2C[C@@H](O)CN2C(=O)C(c2cc(CCN3CCC(c4ccc5c(c4)C(C)(C)c4nc(=O)c6c(Cl)cccc6n4-5)CC3)no2)C(C)C)cc1` (stereo partly drawn) [Compound B15, (2S,4R)-1-(2-(3-(2-(4-(4-chloro-7,7-dimethyl-5-oxo-5,7-dihydroindolo[1,2-a]quinazolin-9-yl)piperidin-1-yl)ethyl)isoxazol-5-yl)-3-methylbutanoyl)-4-hydroxy-N-((S)-1-(4-(4-methylthiazol-5-yl)phenyl)ethyl)pyrrolidine-2-carboxamide]: in assay [1], the DC50 is under 100 nM and the Dmax was over 90%. Also, in assay [2], the DC50 is under 100 nM and the Dmax is over 90%.

Regarding `Cc1ncsc1-c1ccc([C@H](C)NC(=O)[C@@H]2C[C@@H](O)CN2C(=O)C(c2cc(CN3CCC(c4ccc5c(c4)-n4c(nc(=O)c6c(Cl)cccc64)C5(C)C)CC3)no2)C(C)C)cc1` (stereo partly drawn) [Compound B62, (2S,4R)-1-(2-(3-((4-(4-chloro-7,7-dimethyl-5-oxo-5,7-dihydroindolo[1,2-a]quinazolin-10-yl)piperidin-1-yl)methyl)isoxazol-5-yl)-3-methylbutanoyl)-4-hydroxy-N-((S)-1-(4-(4-methylthiazol-5-yl)phenyl)ethyl)pyrrolidine-2-carboxamide], in assay [1], the DC50 is over 1000 nM and the Dmax was under 50%. Moreover, in assay [2], the DC50 is under 100 nM and the Dmax fell in the range of 50 to 69%.

For `Cc1ncsc1-c1ccc([C@H](C)NC(=O)[C@@H]2C[C@@H](O)CN2C(=O)[C@@H](NC(=O)CCCCn2cc(-c3ccc4c(c3)-n3c(nc(=O)c5c(Cl)cccc53)C4(C)C)cn2)C(C)(C)C)cc1` [Compound B64, (2S,4R)-1-((S)-2-(5-(4-(4-chloro-7,7-dimethyl-5-oxo-5,7-dihydroindolo[1,2-a]quinazolin-10-yl)-1H-pyrazol-1-yl)pentanamido)-3,3-dimethylbutanoyl)-4-hydroxy-N-((S)-1-(4-(4-methylthiazol-5-yl)phenyl)ethyl)pyrrolidine-2-carboxamide], in assay [1], the DC50 is over 1000 nM and the Dmax is under 50%. Also, in assay [2], the DC50 fell in the range of 100 to 500 nM and the Dmax was under 50%.

With `Cc1ncsc1-c1ccc([C@H](C)NC(=O)[C@@H]2C[C@@H](O)CN2C(=O)[C@@H](c2cc(OC3CCC(Cn4cc(-c5ccc6c(c5)-n5c(nc(=O)c7c(Cl)cccc75)C6(C)C)cn4)CC3)no2)C(C)C)cc1` (stereo partly drawn) [Compound B96, (2S,4R)-1-((R)-2-(3-((4-((4-(4-chloro-7,7-dimethyl-5-oxo-5,7-dihydroindolo[1,2-a]quinazolin-10-yl)-1H-pyrazol-1-yl)methyl)cyclohexyl)oxy)isoxazol-5-yl)-3-methylbutanoyl)-4-hydroxy-N-((S)-1-(4-(4-methylthiazol-5-yl)phenyl)ethyl)pyrrolidine-2-carboxamide], in assay [1], the “SMARC A4 HT1080 HiBit Dmax(%)” value was “D (D (<50% degradation))” and the DC50 fell in the range of 100 to 500 nM. In assay [2], the “SMARC A2 HT1080 HiBit Dmax (%)” value was “B (B (70-90% degradation))” and the DC50 is under 100 nM.

As to `Cc1ncsc1-c1ccc([C@H](C)NC(=O)[C@@H]2C[C@@H](O)CN2C(=O)[C@@H](c2cc(OCCCCn3cc(-c4ccc5c(c4)-n4c(nc(=O)c6c(Cl)cccc64)C5(C)C)cn3)no2)C(C)C)cc1` [Compound B97, (2S,4R)-1-((R)-2-(3-(4-(4-(4-chloro-7,7-dimethyl-5-oxo-5,7-dihydroindolo[1,2-a]quinazolin-10-yl)-1H-pyrazol-1-yl)butoxy)isoxazol-5-yl)-3-methylbutanoyl)-4-hydroxy-N-((S)-1-(4-(4-methylthiazol-5-yl)phenyl)ethyl)pyrrolidine-2-carboxamide], in assay [1], the DC50 lay in the range of 100 to 500 nM and the Dmax was under 50%. Further, in assay [2], the DC50 fell in the range of 100 to 500 nM and the Dmax was 50 to 69%.

In the case of `Cc1ncsc1-c1ccc([C@H](C)NC(=O)[C@@H]2C[C@@H](O)CN2C(=O)[C@H](C(C)C)n2cc(C3CCC(c4cccc5c4C(C)(C)c4nc(=O)c6c(Cl)cccc6n4-5)CC3)nn2)cc1` (stereo partly drawn) [Compound B162, (2S,4R)-1-((S)-2-(4-(4-(4-chloro-7,7-dimethyl-5-oxo-5,7-dihydroindolo[1,2-a]quinazolin-8-yl)cyclohexyl)-1H-1,2,3-triazol-1-yl)-3-methylbutanoyl)-4-hydroxy-N-((S)-1-(4-(4-methylthiazol-5-yl)phenyl)ethyl)pyrrolidine-2-carboxamide], in assay [1], the “SMARC A4 HT1080 HiBit Dmax(%)” value is given as “C (C (50-69% degradation))” and the DC50 was under 100 nM. Besides, in assay [2], the “SMARC A2 HT1080 HiBit Dmax (%)” value is given as “A (A (>90% degradation))” and the DC50 was under 100 nM.

Take `Cc1ncsc1-c1ccc([C@H](C)NC(=O)[C@@H]2C[C@@H](O)CN2C(=O)[C@@H](n2cc([C@H]3CC[C@H](CN4CCC(c5ccc6c(c5)-n5c(nc(=O)c7c(Cl)cccc75)C6(C)C)CC4)CC3)nn2)C(C)(C)C)cc1` [Compound B51, (2S,4R)-1-((S)-2-(4-((1r,4S)-4-((4-(4-chloro-7,7-dimethyl-5-oxo-5,7-dihydroindolo[1,2-a]quinazolin-10-yl)piperidin-1-yl)methyl)cyclohexyl)-1H-1,2,3-triazol-1-yl)-3,3-dimethylbutanoyl)-4-hydroxy-N-((S)-1-(4-(4-methylthiazol-5-yl)phenyl)ethyl)pyrrolidine-2-carboxamide]: in assay [1], the DC50 is under 100 nM and the Dmax fell in the range of 70 to 90%. Moreover, in assay [2], the DC50 is under 100 nM and the Dmax was over 90%.

As for `Cc1ncsc1-c1ccc2c(c1)CC[C@H]2NC(=O)[C@@H]1C[C@@H](O)CN1C(=O)[C@@H](n1cc([C@H]2CC[C@H](CN3CCC(c4ccc5c(c4)-n4c(nc(=O)c6c(Cl)cccc64)C5(C)C)CC3)CC2)nn1)C(C)(C)C` [Compound B122, (2S,4R)-1-((S)-2-(4-((1r,4S)-4-((4-(4-chloro-7,7-dimethyl-5-oxo-5,7-dihydroindolo[1,2-a]quinazolin-10-yl)piperidin-1-yl)methyl)cyclohexyl)-1H-1,2,3-triazol-1-yl)-3,3-dimethylbutanoyl)-4-hydroxy-N-((R)-5-(4-methylthiazol-5-yl)-2,3-dihydro-1H-inden-1-yl)pyrrolidine-2-carboxamide], the DC50 in assay [1] and in assay [2] was 100 to 500 nM in each case. The Dmax in assay [1] is under 50%; in assay [2] it was 70 to 90%.
